Results as given in patent publication US10774053B2, “HIV protease inhibitors” (Gilead Sciences, Inc., priority 2017, dated 2020).

These molecules were tested on HIV-1 (IIIB) in MT-4 cells (assay: microbe, parasite or virus in culture). Details: Human immunodeficiency virus 1, IIIB, MT4, MT-4 cells, HIV-1; read-out: MT4 EC50.
Assay type: cell-based
Experimental: Compounds were serially diluted (1:3) in DMSO on 384-well polypropylene plates and further diluted 200-fold into complete RPMI media (10% FBS, 1% P/S) using the Biotek Micro Flow and Agilent ECHO acoustic dispenser. Each plate contained up to 8 test compounds, with negative (No Drug Control) and 5 uM AZT positive controls. MT-4 cells were pre-infected with 10 uL of either RPMI (mock-infected) or a fresh 1:250 dilution of an HIV-1 (IIIB) concentrated virus stock. Infected and uninfected MT-4 cells were further diluted in complete RPMI media and added to each plate using a Micro Flow dispenser. After 5 days incubation in a humidified and temperature controlled incubator (37° C.), Cell Titer Glo (Promega) was added to the assay plates to quantify the amount of luciferase.
For `CC(C)(Cl)C[C@]1(c2ccc(-c3cnn(C(F)F)c3)cc2)NC(=N)N([C@H](COC(=O)NC2(C(F)(F)F)CC2)c2ccc(Cl)c(-c3ncnn3C(F)F)c2)C1=O` [Compound 145], the EC50 was 228 nM. Work on `CC(C)(C)C[C@]1(c2ccc(-c3ncn(C4CC4)n3)cc2F)NC(=N)N([C@H](COC(=O)NC2(C(F)(F)F)CC2)c2ccc(Cl)c(-c3ncnn3C(F)F)c2)C1=O` [Compound 142] yielded an EC50 of 10.1 nM. Work on `CC(C)(C)C[C@]1(c2ccc(-c3ncccn3)cc2)NC(=N)N([C@H](COC(=O)N2CC(F)(F)C2)c2ccc(Cl)c(-c3ncn[nH]3)c2)C1=O` [Compound 104] yielded an EC50 of 33.5 nM. `CC(C)(C)C[C@]1(c2ccc(-c3cnn(C(F)F)c3)cc2)NC(=N)N([C@H](COC(=O)N[C@H]2C[C@@H]2C(F)F)c2ccc(Cl)c(-n3ncnc3C(F)F)c2)C1=O` [Compound 332] showed an EC50 of 12.3 nM. `CC(C)(C)C[C@]1(c2ccc(-c3cnn(C(F)F)c3)cc2)NC(=N)N([C@H](CO)c2ccc(Cl)c(-n3ncnc3C(F)F)c2)C1=O` [Compound 186] gave an EC50 of 80.2 nM. `CC(C)(C)C[C@]1(c2ccc(-c3ncccn3)cc2)NC(=N)N([C@H](COC(=O)NC(C)(C)C(F)F)c2ccc(Cl)c(-n3ncnc3C(F)F)c2)C1=O` [Compound 188] showed an EC50 of 9.9 nM. Molecule `CC(C)C(=O)NC[C@H](c1ccc(Cl)c(-n2ncnc2C(F)F)c1)N1C(=N)N[C@](CC(C)(C)C(F)(F)F)(c2ccc(-c3cnn(C4CC4)n3)cc2)C1=O` [Compound 388] has an EC50 of 16.9 nM. Molecule `CC1(NC(=O)OC[C@H](c2ccc(Cl)c(-n3cccn3)c2)N2C(=N)N[C@](CC(C)(C)C(F)(F)F)(c3ccc(-c4cnn(C5CC5)c4)cc3)C2=O)CC1` [Compound 324] has an EC50 of 27.8 nM. `CC(C)(C)C[C@]1(c2ccc(-c3cnn(C(F)F)c3)cc2)NC(=N)N([C@H](COC(=O)N2CC(C)(F)C2)c2ccc(Cl)c(-c3ncn[nH]3)c2)C1=O` [Compound 76] showed an EC50 of 34.8 nM. For `CC(C)(C)C[C@]1(c2ccc(-c3cnn(C(F)F)c3)cc2)NC(=N)N([C@H](COC(=O)NC2(C(F)(F)F)CC2)c2ccc(C(N)=O)c(-c3ncnn3C(F)F)c2)C1=O` [Compound 141], the EC50 was 1020 nM. In the case of `CC(C)(C)C[C@]1(c2ccc(-c3ncon3)cc2)NC(=N)N([C@H](COC(=O)NC2(C(F)(F)F)CC2)c2ccc(Cl)c(-n3cncn3)c2)C1=O` [Compound 378], the EC50 is reported as 35.6 nM. With `CN(C)C(=O)OC[C@H](c1ccc(Cl)c(-c2ncc(N3CCOCC3)s2)c1)N1C(=N)N[C@@](c2cc(F)cc(F)c2)(C2CC2)C1=O` [Compound 3] the EC50 was 5710 nM. Work on `Cn1ccc(-c2ccc([C@@]3(CC(C)(C)C)NC(=N)N([C@H](COC(=O)NCC(F)(F)F)c4ccc(Cl)c(-n5ncnc5C(F)F)c4)C3=O)cc2)n1` [Compound 297] yielded an EC50 of 10.3 nM. In the case of `CC(C)(C)C[C@]1(c2ccc(-c3cnn(C(F)F)c3)cc2)NC(=N)N([C@H](COC(=O)NC2(C)CC2)c2ccc(Cl)c(-n3ccnn3)c2)C1=O` [Compound 260], the EC50 is reported as 32.4 nM. For `CC(C)(C)C[C@]1(c2ccc(-c3cnn(C(F)F)c3)cc2)NC(=N)N([C@H](COC(=O)NC2CC2)c2ccc(Cl)c(-c3ncnn3C3CC3)c2)C1=O` [Compound 38], the EC50 was 9.83 nM. `CC(C)(C)C[C@]1(c2ccc(-c3cnn(C4CC4)n3)cc2)NC(=N)N([C@H](CNC(=O)C2(C)CC2)c2ccc(Cl)c(-n3ncnc3C(F)F)c2)C1=O` [Compound 382] gave an EC50 of 36.5 nM. `CC(C)(C)C[C@]1(c2ccc(-c3cnn(C4CC4)c3)cc2F)NC(=N)N([C@H](COC(=O)NC2(C(F)(F)F)CC2)c2ccc(Cl)c(-n3ncnc3C(F)F)c2)C1=O` [Compound 209] was tested, and the EC50 was 14.7 nM. `CC1(C[C@]2(c3ccc(-c4cnn(C5CC5)c4)cc3)NC(=N)N([C@H](COC(=O)NC3(C(F)(F)F)CC3)c3ccc(Cl)c(-c4ncnn4C(F)F)c3)C2=O)CC1` [Compound 139] gave an EC50 of 28.1 nM. Work on `C[C@H](NC(=O)OC[C@H](c1ccc(Cl)c(-n2ncnc2C(F)F)c1)N1C(=N)N[C@](CC(C)(C)C)(c2ccc(-c3cnn(C4CC4)n3)cc2)C1=O)C(F)(F)F` [Compound 230] yielded an EC50 of 7.62 nM. `CC(C)(C)C[C@]1(c2ccc(-c3cncs3)cc2)NC(=N)N([C@H](COC(=O)NC2(C(F)(F)F)CC2)c2ccc(Cl)c(-n3ncnc3C(F)F)c2)C1=O` [Compound 277] gave an EC50 of 6.99 nM. `CC(C)(C)C[C@]1(c2ccc(-c3cnccn3)cc2)NC(=N)N([C@H](COC(=O)NC2(C(F)(F)F)CC2)c2ccc(Cl)c(-c3ncn[nH]3)c2)C1=O` [Compound 27] was tested, and the EC50 was 80.4 nM. `CC(C)(C)C[C@]1(c2ccc(-c3cnn(C(F)F)c3)cc2)NC(=N)N([C@H](COC(=O)NC2(C)CC2)c2ccc(Cl)c(-c3ncn(C(F)F)n3)c2)C1=O` [Compound 70] showed an EC50 of 29.4 nM. `CC(C)(C)C[C@]1(c2ccc(-c3cnn(C(F)F)c3)c(F)c2)NC(=N)N([C@H](COC(=O)N[C@H]2CC2(F)F)c2ccc(Cl)c(-n3ncnc3C(F)F)c2)C1=O` [Compound 340] showed an EC50 of 6.67 nM. `C[C@H](CC#N)C[C@]1(c2ccc(-c3cnn(C(F)F)c3)cc2)NC(=N)N([C@H](COC(=O)NC2(C(F)(F)F)CC2)c2ccc(Cl)c(-n3ncnc3C(F)F)c2)C1=O` (single isomer, unassigned) [Compound 347] gave an EC50 of 32 nM. `CC(C)(C)C[C@]1(c2ccc(-c3ncccn3)cc2)NC(=N)N([C@H](COC(=O)NC(C)(C)C(F)(F)F)c2ccc(Cl)c(-n3ncnc3C(F)F)c2)C1=O` [Compound 189] gave an EC50 of 9.12 nM. For `CC(C)(C)C[C@]1(c2ccc(-c3cnn(C(F)F)c3)cc2)NC(=N)N([C@H](COC(=O)N2CC(S(C)(=O)=O)C2)c2ccc(Cl)c(-c3ncn[nH]3)c2)C1=O` [Compound 84], the EC50 was 1050 nM. In the case of `CC(C)(C)C[C@]1(c2ccc(-c3cnn(C4CC4)c3)c(F)c2F)NC(=N)N([C@H](COC(=O)NC2(C(F)(F)F)CC2)c2ccc(Cl)c(-c3ncnn3C(F)F)c2)C1=O` [Compound 136], the EC50 is reported as 7.91 nM. `CC(C)(C)C[C@]1(c2ccc(-c3ccccn3)cc2)NC(=N)N([C@H](COC(=O)NC2(C(F)(F)F)CC2)c2cc(F)c(Cl)c(-n3ncnc3C(F)F)c2)C1=O` [Compound 193] was tested, and the EC50 was 88.3 nM. `CC(C)(C)C[C@]1(c2ccc(-c3cnn(C4CC4)n3)cc2)NC(=N)N([C@H](CNC(=O)C2CC2)c2ccc(Cl)c(-n3ncnc3C(F)F)c2)C1=O` [Compound 381] showed an EC50 of 24.8 nM. `CN(C)C(=O)OC[C@H](c1ccc(Cl)c(-c2nc(-c3ccccc3)cs2)c1)N1C(=N)N[C@@](c2cc(F)cc(F)c2)(C2CC2)C1=O` [Compound 6] was tested, and the EC50 was 5710 nM. `CC(C)(C)C[C@]1(c2ccc(-c3ccccn3)cc2)NC(=N)N([C@H](COC(=O)NC2(C(F)(F)F)CC2)c2ccc(Cl)c(-c3ncn[nH]3)c2)C1=O` [Compound 60] gave an EC50 of 28.5 nM. `CC(C)(C)C[C@]1(c2ccc(-c3cnn(C(F)F)c3)cc2)NC(=N)N([C@H](COC(=O)NC2CC2)c2ccc(Cl)c(-c3ncn[nH]3)c2)C1=O` [Compound 19] was tested, and the EC50 was 49.9 nM. `N=C1N[C@](C#CC2CC2)(c2ccc(-c3cnn(C(F)F)c3)cc2)C(=O)N1[C@H](COC(=O)NC1(C(F)(F)F)CC1)c1ccc(Cl)c(-n2cccn2)c1` [Compound 267] gave an EC50 of 243 nM. Work on `Cc1ncnn1-c1cc([C@@H](COC(=O)NC2(C)CC2)N2C(=N)N[C@](CC(C)(C)C)(c3ccc(-c4cnn(C(F)F)c4)cc3)C2=O)ccc1Cl` [Compound 247] yielded an EC50 of 7.51 nM. Molecule `CC(C)(C)C[C@]1(c2ccc(-c3nnn(C4CC4)n3)cc2)NC(=N)N([C@H](COC(=O)NC2(C(F)(F)F)CC2)c2ccc(Cl)c(-n3ncnc3C(F)F)c2)C1=O` [Compound 356] has an EC50 of 19.5 nM. `[H]/N=C1\N[C@](CC(C)(C)C)(c2ccc(-c3cnn(C4CC4)c3)cc2)C(=O)N1[C@H](COC(=O)N1CC(F)(F)C1)c1ccc(Cl)c(-c2ccccn2)c1` [Compound 49] showed an EC50 of 68.1 nM. Molecule `C[C@H](NC(=O)OC[C@H](c1ccc(Cl)c(-c2ncnn2C(F)F)c1)N1C(=N)N[C@](CC(C)(C)C)(c2ccc(-c3cn(C45CC(C4)C5)nn3)c(F)c2)C1=O)C(F)(F)F` [Compound 148] has an EC50 of 13.8 nM. `CC(C)(C)C[C@]1(c2ccc(-c3cnn(C(F)F)c3)cc2)NC(=N)N([C@H](COC(=O)NC2COC2)c2ccc(Cl)c(-c3ncn[nH]3)c2)C1=O` [Compound 94] gave an EC50 of 341 nM. `CC(C)(C)C[C@]1(c2ccc(-c3cnn(C(F)F)c3)cc2)NC(=N)N([C@H](COC(=O)NC2CC2)c2ccc(Cl)c(-c3cn(C(F)F)cn3)c2)C1=O` [Compound 36] was tested, and the EC50 was 89.3 nM. Work on `CC(C)(C)C[C@]1(c2ccc(-c3cnn(C(F)F)c3)cc2)NC(=N)N([C@H](COC(=O)NC2(C)CC2)c2ccc(OC(F)(F)F)c(-n3cncn3)c2)C1=O` [Compound 251] yielded an EC50 of 85.7 nM. For `CC(C)(C)C[C@]1(c2ccc(-c3cnn(S(C)(=O)=O)c3)c(F)c2)NC(=N)N([C@H](COC(=O)NC2CC2(F)F)c2ccc(Cl)c(-n3ncnc3C(F)F)c2)C1=O` (some centres unmarked) [Compound 293], the EC50 was 10.5 nM. `CC(C)(C)C[C@]1(c2ccc(-c3cnn(C(F)F)c3)cc2)NC(=N)N([C@H](CO)c2ccc(Cl)c(-n3cncn3)c2)C1=O` [Compound 246] showed an EC50 of 84.3 nM. For `CC(C)(C)C[C@]1(c2ccc(-c3cnccn3)cc2F)NC(=N)N([C@H](COC(=O)NC2CC2)c2ccc(Cl)c(-c3ncn[nH]3)c2)C1=O` [Compound 21], the EC50 was 63.8 nM. `CC(C)(C)C[C@]1(c2ccc(-c3cnn(C(F)F)c3)cc2)NC(=N)N([C@H](COC(=O)N[C@@H]2C[C@H]2F)c2ccc(Cl)c(-n3ncnc3C(F)F)c2)C1=O` [Compound 337] showed an EC50 of 9.75 nM. `CC(C)(C)C[C@]1(c2ccc(-c3ncccn3)cc2F)NC(=N)N([C@H](COC(=O)NC(C)(C)C(F)(F)F)c2ccc(Cl)c(-n3ncnc3C(F)F)c2)C1=O` [Compound 198] showed an EC50 of 11.5 nM. Work on `CC(C)(C)C[C@]1(c2ccc(-c3cnn(C4CC4)c3)cc2)NC(=N)N([C@H](COC(=O)NC2(C(F)(F)F)CC2)c2ccc(Cl)c(-n3ncnc3C(F)F)c2)C1=O` [Compound 207] yielded an EC50 of 13.9 nM. In the case of `CC(C)(C)C[C@]1(c2ccc(-c3cnn(C(F)F)c3)cc2F)NC(=N)N([C@H](COC(=O)NC(C)(C)C)c2ccc(Cl)c(-c3ncn[nH]3)c2)C1=O` [Compound 114], the EC50 is reported as 40.6 nM.
